# Source: US9777020B2, “Furo-3-carboxamide derivatives and methods of use” (AbbVie Inc., priority 2014, dated 2017)
# pIC50: −log10 of the molar value.
# Molecular target: TrkA (Homo sapiens (Human), UniProt P04629)
# Assay: TrkA kinase HTRF enzyme inhibition assay
# Type: biochemical
# Details: TrkA pre-incubated with 200 μM ATP
# Outline: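 HTRF ratio read-out of biotin-peptide (125 nM) phosphorylation, 1 h reaction after TrkA (2-10 nM) auto-activation with ATP (200 μM) for 20 min and 10 min compound pre-incubation in 50 mM HEPES pH 7.4 with MgCl2/MnCl2. Percent inhibition from initial rates in duplicate, fitted to single-site equation for IC50.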
# TrkA, sequence (P04629 33-796): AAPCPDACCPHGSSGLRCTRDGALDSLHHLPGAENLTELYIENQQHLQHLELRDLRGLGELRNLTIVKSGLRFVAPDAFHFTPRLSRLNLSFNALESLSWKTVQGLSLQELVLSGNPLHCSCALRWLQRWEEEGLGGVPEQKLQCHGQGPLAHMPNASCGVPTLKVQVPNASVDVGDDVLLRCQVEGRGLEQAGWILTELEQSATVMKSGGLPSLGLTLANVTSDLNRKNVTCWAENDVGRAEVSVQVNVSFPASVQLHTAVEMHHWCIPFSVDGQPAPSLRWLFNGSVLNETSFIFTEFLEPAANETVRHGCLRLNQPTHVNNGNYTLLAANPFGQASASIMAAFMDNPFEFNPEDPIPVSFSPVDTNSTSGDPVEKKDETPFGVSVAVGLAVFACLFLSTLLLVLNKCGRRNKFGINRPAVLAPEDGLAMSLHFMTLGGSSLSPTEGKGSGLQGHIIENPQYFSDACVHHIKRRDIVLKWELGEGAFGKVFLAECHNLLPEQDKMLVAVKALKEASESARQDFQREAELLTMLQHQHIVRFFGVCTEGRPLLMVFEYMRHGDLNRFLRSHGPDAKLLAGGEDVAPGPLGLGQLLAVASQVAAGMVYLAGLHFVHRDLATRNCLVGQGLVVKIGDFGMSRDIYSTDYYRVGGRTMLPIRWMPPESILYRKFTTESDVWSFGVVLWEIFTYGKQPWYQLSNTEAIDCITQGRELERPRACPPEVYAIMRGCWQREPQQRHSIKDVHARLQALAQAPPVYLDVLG
row,SMILES,pIC50
1,"COc1cc(N2CCN(C(C)=O)CC2)ccc1NC(=O)c1coc2c1C(=O)CC(C)(C)C2 [Example 158, N-[4-(4-acetylpiperazin-1-yl)-2-methoxyphenyl]-6,6-dimethyl-4-oxo-4,5,6,7-tetrahydro-1-benzofuran-3-carboxamide]",8.38
2,"Cn1cc2cc(NC(=O)c3coc4c3C(=O)CC3(CC3)C4)ccc2n1 [Example 159, N-(2-methyl-2H-indazol-5-yl)-4-oxo-4,7-dihydro-5H-spiro[1-benzofuran-6,1′-cyclopropane]-3-carboxamide]",7.99
3,"Cn1cc2cc(NC(=O)c3coc4c3C(=O)CNC4)ccc2n1 [Example 160, N-(2-methyl-2H-indazol-5-yl)-4-oxo-4,5,6,7-tetrahydrofuro[2,3-c]pyridine-3-carboxamide]",6.59
4,"Cn1cc2cc(NC(=O)c3coc4c3C(=O)CN(S(C)(=O)=O)C4)ccc2n1 [Example 161, N-(2-methyl-2H-indazol-5-yl)-6-(methylsulfonyl)-4-oxo-4,5,6,7-tetrahydrofuro[2,3-c]pyridine-3-carboxamide]",6.06
5,"Cn1cc2cc(NC(=O)c3coc4c3C(=O)CC(C)(C(N)=O)C4)ccc2n1 (centres unmarked) [Example 162, 6-methyl-N^3-(2-methyl-2H-indazol-5-yl)-4-oxo-4,5,6,7-tetrahydro-1-benzofuran-3,6-dicarboxamide]",7.24
6,"COC(=O)C1(C)CC(=O)c2c(C(=O)Nc3ccc4nn(C)cc4c3)coc2C1 (centres unmarked) [Example 163, methyl 6-methyl-3-[(2-methyl-2H-indazol-5-yl)carbamoyl]-4-oxo-4,5,6,7-tetrahydro-1-benzofuran-6-carboxylate]",6.81
7,"Cn1cc2cc(NC(=O)c3coc4c3C(=O)CC(C)(CO)C4)ccc2n1 (centres unmarked) [Example 164, 6-(hydroxymethyl)-6-methyl-N-(2-methyl-2H-indazol-5-yl)-4-oxo-4,5,6,7-tetrahydro-1-benzofuran-3-carboxamide]",7.66
8,"COc1cc(N2CCN(C(=O)OC(C)(C)C)CC2)ccc1NC(=O)c1coc2c1C(=O)CC(C)(CO)C2 (centres unmarked) [Example 165, tert-butyl 4-[4-({[6-(hydroxymethyl)-6-methyl-4-oxo-4,5,6,7-tetrahydro-1-benzofuran-3-yl]carbonyl}amino)-3-methoxyphenyl]piperazine-1-carboxylate]",7.88
9,"COCC1(C)CC(=O)c2c(C(=O)Nc3ccc(N4CCNCC4)cc3OC)coc2C1 (centres unmarked) [Example 166, 6-(methoxymethyl)-N-[2-methoxy-4-(piperazin-1-yl)phenyl]-6-methyl-4-oxo-4,5,6,7-tetrahydro-1-benzofuran-3-carboxamide]",6.98
10,"Cn1cc2cc(NC(=O)c3coc4c3C(=O)C(C)(CO)CC4)ccc2n1 (centres unmarked) [Example 167, 5-(hydroxymethyl)-5-methyl-N-(2-methyl-2H-indazol-5-yl)-4-oxo-4,5,6,7-tetrahydro-1-benzofuran-3-carboxamide]",7.45
11,"COc1cc(N2CCN(C(C)=O)CC2)ccc1NC(=O)c1coc2c1C(=O)C(C)(CN)CC2 (centres unmarked) [Example 169, N-[4-(4-acetylpiperazin-1-yl)-2-methoxyphenyl]-5-(aminomethyl)-5-methyl-4-oxo-4,5,6,7-tetrahydro-1-benzofuran-3-carboxamide]",7.22
12,"COc1cc(N2CCN(C(C)=O)CC2)ccc1NC(=O)c1coc2c1C(=O)C1(CCNCC1)OC2 [Example 170, N-[4-(4-acetylpiperazin-1-yl)-2-methoxyphenyl]-4-oxo-4,7-dihydrospiro[furo[2,3-c]pyran-5,4′-piperidine]-3-carboxamide]",7.25
13,"COc1nc(N2CCN(C(C)=O)CC2)ccc1NC(=O)c1coc2c1C(=O)C(C)(C)OC2 [Example 171, N-[6-(4-acetylpiperazin-1-yl)-2-methoxypyridin-3-yl]-5,5-dimethyl-4-oxo-4,7-dihydro-5H-furo[2,3-c]pyran-3-carboxamide]",8.54
14,"COc1cc(N2CCN(C(C)=O)CC2)ccc1NC(=O)c1coc2c1C(=O)C1(COC1)OC2 [Example 172, N-[4-(4-acetylpiperazin-1-yl)-2-methoxyphenyl]-4-oxo-4,7-dihydrospiro[furo[2,3-c]pyran-5,3′-oxetane]-3-carboxamide]",7.22
15,"CCOc1nc(N2CCN(C(C)=O)CC2)ccc1NC(=O)c1coc2c1C(=O)N(C)C(C)(C)C2 [Example 173, N-[6-(4-acetylpiperazin-1-yl)-2-ethoxypyridin-3-yl]-5,6,6-trimethyl-4-oxo-4,5,6,7-tetrahydrofuro[3,2-c]pyridine-3-carboxamide]",8.46
16,"CCOc1nc(N2CCN(C(C)=O)CC2)ccc1NC(=O)c1coc2c1C(=O)N(CCO)C(C)(C)C2 [Example 174, N-[6-(4-acetylpiperazin-1-yl)-2-ethoxypyridin-3-yl]-5-(2-hydroxyethyl)-6,6-dimethyl-4-oxo-4,5,6,7-tetrahydrofuro[3,2-c]pyridine-3-carboxamide]",8.28
17,"CCOc1nc(N2CCN(C(C)=O)CC2)ccc1NC(=O)c1coc2c1C(=O)N(CCOC)C(C)(C)C2 [Example 175, N-[6-(4-acetylpiperazin-1-yl)-2-ethoxypyridin-3-yl]-5-(2-methoxyethyl)-6,6-dimethyl-4-oxo-4,5,6,7-tetrahydrofuro[3,2-c]pyridine-3-carboxamide]",8.33
18,"CCOc1nc(N2CCN(C(C)=O)CC2)ccc1NC(=O)c1coc2c1C(=O)N(CCOCCO)C(C)(C)C2 [Example 176, N-[6-(4-acetylpiperazin-1-yl)-2-ethoxypyridin-3-yl]-5-[2-(2-hydroxyethoxyl)ethyl]-6,6-dimethyl-4-oxo-4,5,6,7-tetrahydrofuro[3,2-c]pyridine-3-carboxamide]",8.68
19,"CC(=O)N1CCN(c2ccc(NC(=O)c3coc4c3C(=O)NC(C)(C)C4)c(OCC(F)(F)F)n2)CC1 [Example 178, N-[6-(4-acetylpiperazin-1-yl)-2-(2,2,2-trifluoroethoxyl)pyridin-3-yl]-6,6-dimethyl-4-oxo-4,5,6,7-tetrahydrofuro[3,2-c]pyridine-3-carboxamide]",8.28
20,"CC(=O)N1CCN(c2ccc(NC(=O)c3coc4c3C(=O)NC(C)(C)C4)c(OC3COC3)n2)CC1 [Example 179, N-[6-(4-acetylpiperazin-1-yl)-2-(oxetan-3-yloxy)pyridin-3-yl]-6,6-dimethyl-4-oxo-4,5,6,7-tetrahydrofuro[3,2-c]pyridine-3-carboxamide]",8.31
21,"CC(=O)N1CCN(c2ccc(NC(=O)c3coc4c3C(=O)NC(C)(C)C4)c(OC3CCOCC3)n2)CC1 [Example 180, N-[6-(4-acetylpiperazin-1-yl)-2-(tetrahydro-2H-pyran-4-yloxy)pyridin-3-yl]-6,6-dimethyl-4-oxo-4,5,6,7-tetrahydrofuro[3,2-c]pyridine-3-carboxamide]",7.96
22,"CC(=O)N1CCN(c2ccc(NC(=O)c3coc4c3C(=O)NC(C)(C)C4)c(O[C@H]3CCOC3)n2)CC1 [Example 181, N-{6-(4-acetylpiperazin-1-yl)-2-[(3S)-tetrahydrofuran-3-yloxy]pyridin-3-yl}-6,6-dimethyl-4-oxo-4,5,6,7-tetrahydrofuro[3,2-c]pyridine-3-carboxamide]",7.99
23,"COCCOc1nc(N2CCN(C=O)CC2)ccc1NC(=O)c1coc2c1C(=O)NC(C)(C)C2 [Example 182, N-[6-(4-formylpiperazin-1-yl)-2-(2-methoxyethoxyl)pyridin-3-yl]-6,6-dimethyl-4-oxo-4,5,6,7-tetrahydrofuro[3,2-c]pyridine-3-carboxamide]",7.75
24,"CC(=O)N1CCN(c2ccc(NC(=O)c3coc4c3C(=O)NC(C)(C)C4)c(OC3C[S+]([O-])C3)n2)CC1 (centres unmarked) [Example 183, N-{6-(4-acetylpiperazin-1-yl)-2-[(1-oxidothietan-3-yl)oxy]pyridin-3-yl}-6,6-dimethyl-4-oxo-4,5,6,7-tetrahydrofuro[3,2-c]pyridine-3-carboxamide]",8.32
25,"CCOc1nc(C2CCN(C(C)=O)CC2)ccc1NC(=O)c1coc2c1C(=O)NC(C)(C)C2 [Example 184, N-[6-(1-acetylpiperidin-4-yl)-2-ethoxypyridin-3-yl]-6,6-dimethyl-4-oxo-4,5,6,7-tetrahydrofuro[3,2-c]pyridine-3-carboxamide]",8.46
26,"CCOc1nc(N2CCN(C(C)=O)CC2)ccc1NC(=O)c1coc2c1C(=O)C(c1cc(F)ccc1F)CC2 (centres unmarked) [Example 185, N-[6-(4-acetylpiperazin-1-yl)-2-ethoxypyridin-3-yl]-5-(2,5-difluorophenyl)-4-oxo-4,5,6,7-tetrahydro-1-benzofuran-3-carboxamide]",8.18
